Measured values reported in US7589070B2, “Surface modification for improving biocompatibility” (The Children's Hospital of Philadelphia, priority 2001, dated 2009).

Tests used:
[1] = Surface phosphorus content of pamidronate-treated steel by SEM and EDAX; assay type: physicochemical
[2] = tested on: rat A10 arterial smooth muscle cells; test: In vitro transduction of A10 cells by adenovirus GFP tethered to steel stents/rods; assay type: cell-based
Protocol: A type 5 adenovirus vector encoding GFP was used in this experiment. Stainless steel stents were incubated with amino-pamidronate, SPDP and anti-adenovirus knob F(ab)′2 antibody; amino-pamidronate and SPDP; amino-pamidronate only; or a stent only, without modification. The specific anti-adenovirus knob F(ab′)2 bound stents were incubated in the ad-GFP solution for 1 hour at 37 C. The virus loading in the incubation pool was 1×10^8 pfu/stent for all groups. The stents were then removed from the virus pool and rinsed with PBS followed by overnight washing. Images obtained by atomic force microscopy confirmed that high levels of vector immobilization could be achieved by this method.
The virus binding efficacy was evaluated in vitro using rat A10 arterial smooth muscle cells. A cell suspension of 5×10^4 A10 cells per ml of M199 medium was prepared with 10% FBS and 1% penicillin/streptomycin. The stent was rinsed with M199 medium once and equilibrated in the M199 medium at 37 C. for 10 minutes in a 6 well culture plate. The medium from the wells was aspirated, holding the stents, and 2 ml cell suspension was added to each well. Cell transduction was observed by fluorescence microscopy using a FITC filter. […] 90% of cells with adenovirus GFP anti-the antibody bound stent were transduced. […] Consequently, transduction efficiency is enhanced in vitro in antibody-bound stents compared to control stents.
A10 smooth muscle cells were transduced with SPDP-anti-adenovirus knob F(ab)′2 antibody-adenovirus GFP bound stainless steel rods, and pretreated with either 1.5 M pamidronate, 3.0 M pamidronate or 5.0 M pamidronate. Cell transduction was proportional to the pamidronate concentration used in a reaction. […] Accordingly, A10 cell transduction efficiency is related to pamidronate concentration used in the reaction.

Structure (SMILES): NCCC(O)(P(=O)(O)O)P(=O)(O)O [pamidronate, 3-amino-hydroxypropylidene-1,1-bisphosphonic acid]
- phosphorus percent by weight ([1]; stainless steel rod after reaction with pamidronate at pH 5, EDAX): 13%
- phosphorus percent by weight ([1]; stainless steel rod after reaction with pamidronate at pH 7, EDAX): 1%
- cell transduction (qualitative) ([2]; pretreated with 5 M pamidronate): did not show much increase in cell transduction
- cell transduction (qualitative) ([2]; steel rods pretreated with 1.5 M pamidronate): much less cell transduction
- cell transduction (qualitative) ([2]; steel rods pretreated with 3.0 M pamidronate): optimal
